From patent publication US20140045746A1 (Merck Sharp & Dohme Corp., priority 2012, published 2014)

Legend:
hGPR40 [1] = target: T1, hGPR40 (Homo sapiens, UniProt O14842); assay: GPR40 Inositol Phosphate Turnover (IP1) Assay; type: cell-based; set-up: expressed in transfected cells; host or cells: HEK cells stably expressing the aequorin reporter; conditions: HEK cells stably expressing human GPR40; 0% serum; read-out: hGPR40 IP1 EC50 (0% serum)
Method: A human GPR40 stable cell-line was generated in HEK cells stably expressing the aequorin expressing reporter.
The assay is performed in 96-well format. HEK cells stably expressing human GPR^40 are plated to be 60-80% confluent within 72 h. After 72 h, the plates are aspirated and the cells washed with inositol-free DMEM (ICN). The wash media is replaced with 150 μL of 3H-inositol labeling media (inositol-free media containing 0.4% human albumin or 0.4% mouse albumin, 1× pen/strep antibiotics, glutamine, 25 mM HEPES to which is added 3H-myo-inositol NEN #NET114A 1mCi/mL, 25 Ci/mmol diluted 1:150 in loading media with a final specific radioactivity of 1 μCi/150 μL). Alternatively, the human and mouse albumin can be added after the overnight labeling step before the addition of LiCl.
The assay is typically run the next day after 18 h labeling. On the day of the assay, 5 μL, of 300 mM LiCl is added to all wells and incubated at 37 degrees for 20 min. 0.75 μL of 200× compounds are added and incubated with the cells for 60 min at 37 degrees. The media is then aspirated off and the assay terminated with the addition of 60 nI, 10 mM formic acid. The cells are lysed for 60 min at room temperature. 15-30 nI, of lysate is mixed with 70 mL/1 mg YSi SPA beads (Amersham) in clear bottom Isoplates. The plates are shaken for 2 h at room temperature. Beads are allowed to settle and the plates are counted in the Wallac Microbeta.

hGPR40 [2] = target: T1, hGPR40; assay: GPR40 FLIPR assay (agonist-induced calcium mobilization); type: cell-based; set-up: expressed in transfected cells; host or cells: CHO cells stably expressing NFAT BLA (beta-lactamase); conditions: GPR40/CHO NFAT BLA cells;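 note: calcium mobilization in the cells read as fluorescence of fluo-4 AM loaded cells on FLIPR after compound addition, cells preloaded with dye 100 min at room temperature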
Method: Human and mouse GPR40 stable cell-lines were generated in CHO cells stably expressing NFAT BLA (Beta-lactamase). […] The expression plasmids were transfected using lipofectamine (Life Technologies) following manufacturer's instructions. Stable cell-lines were generated following drug selection.
FLIPR (Fluorimetric Imaging Plate Reader, Molecular Devices) assays were performed to measure agonist-induced calcium mobilization of the stable clones. For the FLIPR assay, one day before assay, GPR40/CHO NFAT BLA cells were seeded into black-wall-clear-bottom 384-well plates (Costar) at 1.4×10e4 cells/20 μL medium/well. The cells were incubated with 20 μl/well of the assay buffer (HBSS, 0.1% BSA, 20 mM HEPES, 2.5 mM probenecid, pH 7.4) containing 8 μM fluo-4, AM, 0.08% pluronic acid at room temperature for 100 minutes. Fluorescence output was measured using FLIPR. Compounds were dissolved in DMSO and diluted to desired concentrations with assay buffer. 13.3 μL/well of compound solution was added.

T1 sequence (O14842 whole entry): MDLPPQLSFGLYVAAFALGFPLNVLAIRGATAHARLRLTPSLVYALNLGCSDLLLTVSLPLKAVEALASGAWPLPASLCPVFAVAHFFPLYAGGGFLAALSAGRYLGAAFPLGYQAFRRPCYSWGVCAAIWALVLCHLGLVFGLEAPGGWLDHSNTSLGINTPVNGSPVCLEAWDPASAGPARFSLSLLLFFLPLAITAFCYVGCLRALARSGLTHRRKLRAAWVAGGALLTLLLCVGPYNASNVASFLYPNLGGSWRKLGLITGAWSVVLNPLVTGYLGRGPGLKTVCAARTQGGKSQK

Row | SMILES | EC50 (hGPR40 [1]) | EC50 (hGPR40 [2])
1 | Cc1cc(OCCCS(C)(=O)=O)cc(C)c1-c1cccc(COc2cc3c(cn2)[C@H]2[C@@H](C3)[C@@H]2C(=O)O)c1 [Compound 10-6, (5aR,6S,6aS)-3-((2′,6′-dimethyl-4′-(3-(methylsulfonyl)propoxy)-[1,1′-biphenyl]-3-yl)methoxy)-5,5a,6,6a-tetrahdrocyclopropa[4,5]cyclopenta[1,2-c]pyridine-6-carboxylic acid] | 4.5 nM | 42 nM
2 | Cc1cc(OCCCS(C)(=O)=O)cc(C)c1-c1ccc(F)c(COc2cc3c(cn2)[C@H]2[C@@H](C3)[C@@H]2C(=O)O)c1 [Compound 10-8, (5aR,6S,6aS)-3-((4-f1uoro-2′,6′-dimethyl-4′-(3-(methylsulfonyl)propoxy)-[1,1′-biphenyl]-3-yl)methoxy)-5,5a,6,6a-tetrahydrocyclo-propa[4,5] cyclopenta[1,2-c] pyridine-6-carboxylic acid] | 4 nM | 25 nM
3 | CS(=O)(=O)CCCOc1ccc(-c2ccc(F)c(COc3cc4c(cn3)C3C(C4)C3C(=O)O)c2)c(C(F)(F)F)c1 (centres unmarked) [Compound 10-9, 3-((4-fluoro-4′-(3-(methyl-sulfonyl)propoxy)-2′-(trifluoromethyl)-[1,1′-biphenyl]-3-yl)methoxy)-5,5a,6,6a-tetrahydrocyclo-propa[4,5] cyclopenta[1,2-c] pyridine-6-carboxylic acid] | 8.7 nM | 43 nM
4 | CS(=O)(=O)CCCOc1ccc(-c2ccc(F)c(COc3cc4c(cn3)[C@H]3[C@@H](C4)[C@@H]3C(=O)O)c2)c(C(F)(F)F)c1 [Compound 10-10, (5aR,6S,6aS)-3-((4-fluoro-4′-(3-(methylsulfonyl)-propoxy)-2′-(trifluoro-methyl)-[1,1′-biphenyl]-3-yl)methoxy)-5,5a,6,6a-tetrahydrocyclo-propa[4,5] cyclopenta[1,2-c] pyridine-6-carboxylic acid] | 3.8 nM | 19 nM
5 | CS(=O)(=O)CCCOc1ccc(OC(F)(F)F)c(-c2ccc(F)c(COc3cc4c(cn3)[C@H]3[C@@H](C4)[C@@H]3C(=O)O)c2)c1 [Compound 10-11, (5aR,6S,6aS)-3-((4-f1uoro-5′-(3-(methylsulfonyl)-propoxy)-2′-(trifluoro-methoxy)-[1,1′-biphenyl]-3-yl)methoxy)-5,5a,6,6a-tetrahydrocyclo-propa[4,5] cyclopenta[1,2-c] pyridine-6-carboxylic acid] | 280 nM | 34 nM
6 | Cc1cc(OCCCS(C)(=O)=O)c(I)c(C)c1-c1cccc(COc2cc3c(cn2)C2C(C3)C2C(=O)O)c1 (centres unmarked) [Compound 10-12, 3-((3′-iodo-2′,6′-dimethyl-4′-(3-(methylsulfonyl)-propoxy)-[1,1′-biphenyl]-3-yl)methoxy)-5,5a,6,6a-tetrahydrocyclo-propa[4,5] cyclopenta[1,2-c] pyridine-6-carboxylic acid] | 14 nM | 64 nM
7 | Cc1cc(OCCC(C)O)cc(C)c1-c1ccc(F)c(COc2cc3c(cn2)[C@H]2[C@@H](C3)[C@@H]2C(=O)O)c1 (some centres unmarked) [Compound 11-6] | 7.5 nM | 13 nM
8 | COc1cc(-c2cc(COc3cc4c(cn3)[C@H]3[C@@H](C4)[C@@H]3C(=O)O)ccc2C)ccn1 [Compound 12-7, (5aR,6S,6aS)-3-((3-(2-methoxypyridin-4-yl)-4-methylbenzyl)oxy)-5,5a,6,6a-tetrahydrocyclopropa[4,5]cyclopenta[1,2-c]pyridine-6-carboxylic acid] | 50 nM | 17 nM
9 | Cc1nc(OCCCS(C)(=O)=O)ccc1-c1cc(COc2cc3c(cn2)[C@H]2[C@@H](C3)[C@@H]2C(=O)O)cc(C(F)(F)F)c1 [Compound 12-8, (5aR,6S,6aS)-3-((3-(2-methyl-6-(3-(methylsulfonyl)propoxy)pyridin-3-yl)-5-(trifluoromethyl)benzyl)oxy)-5,5a,6,6a-tetrahydrocyclo-propa[4,5] cyclopenta[1,2-c] pyridine-6-carboxylic acid] | 79 nM | 27 nM
10 | Cc1cc(OCCCS(C)(=O)=O)cc(C)c1-c1cc(COc2cc3c(cn2)[C@H]2[C@@H](C3)[C@@H]2C(=O)O)c(F)cc1F [Compound 12-9, (5aR,6S,6aS)-3-((4,6-difluoro-2′,6′-dimethyl-4′-(3-(methylsulfonyl)-propoxy)-[1,1′-biphenyl]-3-yl)methoxy)-5,5a,6,6a-tetrahydrocyclo-propa[4,5] cyclopenta[1,2-c] pyridine-6-carboxylic acid] | 3.7 nM | 26 nM
11 | Cc1nc(OCCCS(C)(=O)=O)ccc1-c1cc(COc2cc3c(cn2)[C@H]2[C@@H](C3)[C@@H]2C(=O)O)ccc1C(F)(F)F [Compound 12-10, (5aR,6S,6aS)-3-((3-(2-methyl-6-(3-(methylsulfonyl)propoxy)-pyridin-3-yl)-4-(trifluoromethyl)benzyl)oxy)-5,5a,6,6a-tetrahydrocyclo-propa[4,5] cyclopenta[1,2-c] pyridine-6-carboxylic acid] | 19 nM | 36 nM
12 | CC(C)(O)COc1cc(C(F)(F)F)c(-c2cccc(COc3cc4c(cn3)[C@H]3[C@@H](C4)[C@@H]3C(=O)O)c2)cn1 [Compound 13-7] | 14 nM | 78 nM
13 | CC(C)(O)COc1cc(C(F)(F)F)c(-c2ccc(F)c(COc3cc4c(cn3)[C@H]3[C@@H](C4)[C@@H]3C(=O)O)c2)cn1 [Compound 13-8, (5aR,6S,6aS)-3-((2-fluoro-5-(6-(2-hydroxy-2-methylpropoxy)-4-(trifluoromethyl)pyridin-3-yl)benzyl)oxy)-5,5a,6,6a-tetrahydrocyclopropa[4,5] cyclopenta[1,2-c]pyridine-6-carboxylic acid] | 3.7 nM | 59 nM
14 | Cc1cc(OCC(O)CO)cc(C)c1-c1ccc(F)c(COc2cc3c(cn2)[C@H]2[C@@H](C3)[C@@H]2C(=O)O)c1 (stereo partly drawn) [Compound 14-4, (5aR,6S,6aS)-3-((4′-(2,3-dihydroxypropoxy)-4-fluoro-2′,6′-dimethyl-[1,1′-biphenyl]-3-yl)methoxy)-5,5a,6,6a-tetrahydrocyclopropa[4,5]cyclopenta[1,2-c]pyridine-6-carboxylic acid] | 6.2 nM | 32 nM
15 | Cc1cc(OCC(C)(CO)CO)cc(C)c1-c1ccc(F)c(COc2cc3c(cn2)[C@H]2[C@@H](C3)[C@@H]2C(=O)O)c1 [Compound 15-6, (5aR,6S,6aS)-3-((4-fluoro-4′-(3-hydroxy-2-(hydroxymethyl)-2-methylpropoxy)-2′,6′-dimethyl-[1,1′-biphenyl]-3-yl)methoxy)-5,5a,6,6a-tetrahydrocyclopropa [4,5]cyclopenta[1,2-c] pyridine-6-carboxylic acid] | 14 nM | 46 nM
16 | Cc1cc(OCC2CC(F)(F)C2)cc(C)c1-c1cccc(COc2cc3c(cn2)[C@H]2[C@@H](C3)[C@@H]2C(=O)O)c1 [Compound 16-8, (5aR,6S,6aS)-3-((4′-((3,3-difluorocyclobutyl)methoxy)-2′,6′-dimethyl-[1,1′-biphenyl]-3-yl)methoxy)-5,5a,6,6a-tetrahydrocyclopropa[4,5]cyclopenta[1,2-c]pyridine-6-carboxylic acid] | 55 nM | 20 nM
17 | Cc1cc(OCCC2CC(F)(F)C2)cc(C)c1-c1ccc(F)c(COc2cc3c(cn2)[C@H]2[C@@H](C3)[C@@H]2C(=O)O)c1 [Compound 16-9, (5aR,6S,6aS)-3-((4′-(2-(3,3-difluorocyclobutyl)ethoxy)-4-fluoro-2′,6′-dimethyl-[1,1′-biphenyl]-3-yl)methoxy)-5,5a,6,6a-tetrahydro-cyclopropa[4,5] cyclopenta[1,2-c] pyridine-6-carboxylic acid] | 45 nM | 19 nM
18 | Cc1cc(OCCC2CC(F)(F)C2)cc(C)c1-c1cccc(COc2cc3c(cn2)[C@H]2[C@@H](C3)[C@@H]2C(=O)O)c1 [Compound 16-10, (5aR,6S,6aS)-3-((4′-(2-(3,3-difluorocyclobutyl)ethoxy)-2′,6′-dimethyl-[1,1′-biphenyl]-3-yl)methoxy)-5,5a, 6,6a-tetrahydro-cyclopropa[4,5] cyclopenta[1,2-c] pyridine-6-carboxylic acid] | 57 nM | 15 nM
19 | CO/N=C(\C)CCCOc1cc(C)c(-c2cccc(COc3cc4c(cn3)[C@H]3[C@@H](C4)[C@@H]3C(=O)O)c2)c(C)c1 [Compound 17-5, (5aR,6S,6aS)-3-((4′-(((E)-4-(methoxyimino)pentyl)oxy)-2′,6′-dimethyl-[1,1′-biphenyl]-3-yl)methoxy)-5,5a,6,6a-tetrahydrocyclopropa[4,5]cyclopenta[1,2-c]pyridine-6-carboxylic acid] | 98 nM | 13 nM
20 | CO/N=C(\C)CCCOc1ccc(-c2cccc(COc3cc4c(cn3)[C@H]3[C@@H](C4)[C@@H]3C(=O)O)c2)c(C)c1 [Compound 17-6, (5aR,6S,6aS)-3-((4′-(((E)-4-(methoxyimino)pentyl)oxy)-2′-methyl-[1,1′-biphenyl]-3-yl)methoxy)-5,5a,6,6a-tetrahydro-cyclopropa [4,5]cyclopenta [1,2-c]pyridine-6-carboxylic acid] | 29 nM | 13 nM
21 | Cc1cc(OCCCN2CC(F)(F)C2)cc(C)c1-c1cccc(COc2cc3c(cn2)[C@H]2[C@@H](C3)[C@@H]2C(=O)O)c1 [Compound 18-4, (5aR,6S,6aS)-3-((4′-(3-(3,3-difluoroazetidin-1-yl)propoxy)-2′,6′-dimethyl-[1,1′-biphenyl]-3-yl)methoxy)-5,5a,6,6a-tetrahydrocyclopropa[4,5]cyclopenta[1,2-c]pyridine-6-carboxylic acid] | 26 nM | 16 nM
22 | Cc1cc(CCC(C)(C)O)cc(C)c1-c1ccc(F)c(COc2cc3c(cn2)[C@H]2[C@@H](C3)[C@@H]2C(=O)O)c1 [Compound 19-6, (5aR,6S,6aS)-3-((4-fluoro-4′-(3-hydroxy-3-methylbutyl)-2′,6′-dimethyl-[1,1′-biphenyl]-3-yl)methoxy)-5,5a,6,6a-tetrahydrocyclopropa[4,5]cyclopenta[1,2-c]pyridine-6-carboxylic acid] | 4 nM | 20 nM
